Tests used:
[1] = target: T1, Fructose-1,6-bisphosphatase 1 (Homo sapiens, UniProt P09467); assay: Inhibition of human liver fructose-1,6-bisphosphatase in presence of fructose-2,6-bisphosphate
T1 sequence (P09467 whole entry): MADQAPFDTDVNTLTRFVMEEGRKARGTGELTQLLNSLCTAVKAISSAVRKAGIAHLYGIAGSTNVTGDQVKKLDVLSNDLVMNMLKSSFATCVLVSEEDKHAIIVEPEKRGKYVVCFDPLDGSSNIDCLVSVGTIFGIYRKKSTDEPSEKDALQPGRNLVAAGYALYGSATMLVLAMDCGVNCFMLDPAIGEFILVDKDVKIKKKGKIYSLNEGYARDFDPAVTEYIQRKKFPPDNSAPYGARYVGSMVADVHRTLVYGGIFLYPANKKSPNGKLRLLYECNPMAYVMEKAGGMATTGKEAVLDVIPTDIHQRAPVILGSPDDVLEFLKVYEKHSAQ

[2] = target: T1, Fructose-1,6-bisphosphatase 1; assay: Inhibition of human liver fructose-1,6-bisphosphatase
[3] = Bioavailability in mouse at 9.68 mg/kg, po; type: ADME, organism-based; conditions: in vivo
[4] = Dissociation constant, pKa of the compound; type: physicochemical
[5] = Lipophilicity, Log D at pH 7.4; type: physicochemical; conditions: buffer
[6] = Half life in mouse at 9.68 mg/kg, po; type: ADME, organism-based; set-up: dose 9.68 mg/kg, route oral; conditions: in vivo
[7] = Bioavailability in mouse at 10 mg/kg, po; type: ADME, organism-based; conditions: in vivo
[8] = Half life in mouse at 10 mg/kg, po; type: ADME, organism-based; set-up: dose 10 mg/kg, route oral; conditions: in vivo

| IC50 [1] | IC50 [2] | SMILES | also measured |
| --- | --- | --- | --- |
| 0.028 µM | 0.068 µM | Cc1cccc(S(=O)(=O)NC(=O)NCC/C=C/CCNC(=O)NS(=O)(=O)c2cccc(C)c2)c1 |  |
| 0.012 µM | 0.095 µM | Cc1cccc(S(=O)(=O)NC(=O)NCCC#CCCNC(=O)NS(=O)(=O)c2cccc(C)c2)c1 |  |
| 0.016 µM | 0.028 µM | O=C(NC[C@H]1CC[C@H](CNC(=O)NS(=O)(=O)c2cccc(Cl)c2)CC1)NS(=O)(=O)c1cccc(Cl)c1 |  |
| 0.264 µM | 2.75 µM | O=C(NCCCCNC(=O)NS(=O)(=O)c1cccc(Cl)c1)NS(=O)(=O)c1cccc(Cl)c1 |  |
| 0.019 µM | 0.05 µM | O=C(NCCCCCNC(=O)NS(=O)(=O)c1cccc(Cl)c1)NS(=O)(=O)c1cccc(Cl)c1 |  |
| 0.022 µM | 0.072 µM | Cc1cccc(S(=O)(=O)NC(=O)NCCCCCNC(=O)NS(=O)(=O)c2cccc(C)c2)c1 |  |
| 0.151 µM | 0.827 µM | Cc1cccc(S(=O)(=O)NC(=O)NCCOCCNC(=O)NS(=O)(=O)c2cccc(C)c2)c1 |  |
| 0.017 µM | 0.045 µM | O=C(NCCCCCCCCNC(=O)NS(=O)(=O)c1cccc(Cl)c1)NS(=O)(=O)c1cccc(Cl)c1 |  |
| 0.014 µM | 0.04 µM | O=C(NCC/C=C/CCNC(=O)NS(=O)(=O)c1cccc(Cl)c1)NS(=O)(=O)c1cccc(Cl)c1 |  |
| 0.008 µM |  | O=C(NCCCCCCNC(=O)NS(=O)(=O)c1cccc(Cl)c1)NS(=O)(=O)c1cccc(Cl)c1 | bioavailability [3]: 108%; pKa [4]: 5.35; logD [5]: -0.93; half-life [6]: 1.83 h |
| 0.012 µM | 0.024 µM | Cc1cccc(S(=O)(=O)NC(=O)NCCCCCCNC(=O)NS(=O)(=O)c2cccc(C)c2)c1 |  |
| 134 µM | 196 µM | CCCCNC(=O)NS(=O)(=O)c1cccc(Cl)c1 |  |
| 234 µM | 690 µM | CCCNC(=O)NS(=O)(=O)c1cccc(Cl)c1 |  |
| 0.004 µM |  | O=C(NCCCCCCCNC(=O)NS(=O)(=O)c1cccc(Cl)c1)NS(=O)(=O)c1cccc(Cl)c1 | pKa [4]: 5.12; logD [5]: -0.43 |
| 0.005 µM | 0.012 µM | Cc1cccc(S(=O)(=O)NC(=O)NCCCCCCCNC(=O)NS(=O)(=O)c2cccc(C)c2)c1 | bioavailability [7]: 100%; half-life [8]: 3 h |
| 13.7 µM | 43.8 µM | O=C(NCCCNCCCNC(=O)NS(=O)(=O)c1cccc(Cl)c1)NS(=O)(=O)c1cccc(Cl)c1 |  |
| > 100 µM | > 100 µM | Cc1cccc(S(=O)(=O)NC(=O)NCCNCCNC(=O)NS(=O)(=O)c2cccc(C)c2)c1 |  |

| IC50 [1] | IC50 [2] | SMILES | also measured |
| --- | --- | --- | --- |
| 0.012 µM | 0.029 µM | Cc1cccc(S(=O)(=O)NC(=O)NCCSSCCNC(=O)NS(=O)(=O)c2cccc(C)c2)c1 |  |
| 0.057 µM | 0.125 µM | O=C(NCCCOCCCNC(=O)NS(=O)(=O)c1cccc(Cl)c1)NS(=O)(=O)c1cccc(Cl)c1 |  |
| 86.8 µM | 178 µM | CCCCNC(=O)NS(=O)(=O)c1cccc(C)c1 |  |
| 10.6 µM | 20.5 µM | Cc1cccc(S(=O)(=O)NC(=O)NCCS)c1 |  |
| 0.004 µM | 0.006 µM | O=C(NCc1ccc(CNC(=O)NS(=O)(=O)c2cccc(Cl)c2)cc1)NS(=O)(=O)c1cccc(Cl)c1 |  |
| 0.002 µM | 0.003 µM | Cc1cccc(S(=O)(=O)NC(=O)NCc2ccc(CNC(=O)NS(=O)(=O)c3cccc(C)c3)cc2)c1 |  |
| 0.006 µM | 0.012 µM | Cc1cccc(S(=O)(=O)NC(=O)NCc2cccc(CNC(=O)NS(=O)(=O)c3cccc(C)c3)c2)c1 |  |
| > 100 µM | > 100 µM | Cc1cccc(S(=O)(=O)NC(=O)NCCNC(=O)NS(=O)(=O)c2cccc(C)c2)c1 |  |
|  | 1.6 µM | Nc1ccc(S(=O)(=O)NC(=O)NCCS)cc1 |  |
| 38.5 µM | > 100 µM | Cc1cccc(S(=O)(=O)NC(=O)NCCCNC(=O)NS(=O)(=O)c2cccc(C)c2)c1 |  |
| 277 µM | 515 µM | CSCCNC(=O)NS(=O)(=O)c1cccc(Cl)c1 |  |
| 320 µM | > 1000 µM | CCCNC(=O)NS(=O)(=O)c1cccc(C)c1 |  |
| 0.018 µM | 0.07 µM | Cc1cccc(S(=O)(=O)NC(=O)NCCSCCNC(=O)NS(=O)(=O)c2cccc(C)c2)c1 |  |
| 0.008 µM | 0.035 µM | Cc1cccc(S(=O)(=O)NC(=O)NCCCCCCCCNC(=O)NS(=O)(=O)c2cccc(C)c2)c1 |  |
| 0.01 µM | 0.055 µM | O=C(NCCSSCCNC(=O)NS(=O)(=O)c1cccc(Cl)c1)NS(=O)(=O)c1cccc(Cl)c1 |  |
| 0.542 µM | 3.4 µM | Cc1cccc(S(=O)(=O)NC(=O)NCCCCNC(=O)NS(=O)(=O)c2cccc(C)c2)c1 |  |
